Reference: publication PMC3694096, “Development of Novel In Vivo Chemical Probes to Address CNS Protein Kinase Involvement in Synaptic Dysfunction” (PLoS ONE, 2013)

Legend:
EGFR(L858R) = target: T1, EGFR(L858R) (Homo sapiens, UniProt P00533, L858R); assay: Kinome profiler screen; type: biochemical; conditions: at 20,000 nM inhibitor; kinase activity remaining
T1 construct: purchased Millipore KinaseProfiler

Arg = target: T2, Arg (Homo sapiens, UniProt P42684); assay: Kinome profiler screen; type: biochemical; conditions: at 20,000 nM inhibitor; kinase activity remaining
T2 construct: purchased Millipore KinaseProfiler

ACK1 = target: T3, ACK1 (Homo sapiens, UniProt Q07912); assay: Kinome profiler screen; type: biochemical; conditions: at 20,000 nM inhibitor; kinase activity remaining
T3 construct: purchased Millipore KinaseProfiler

TSSK2 = target: T4, TSSK2 (Homo sapiens, UniProt Q96PF2); assay: Kinome profiler screen; type: biochemical; conditions: at 20,000 nM inhibitor; kinase activity remaining
T4 construct: purchased Millipore KinaseProfiler

PKBγ = target: T5, PKBγ (Homo sapiens, UniProt Q9Y243); assay: Kinome profiler screen; type: biochemical; conditions: at 20,000 nM inhibitor; kinase activity remaining
T5 construct: purchased Millipore KinaseProfiler

Pim-2 = target: T6, Pim-2 (Homo sapiens, UniProt Q9P1W9); assay: Kinome profiler screen; type: biochemical; conditions: at 20,000 nM inhibitor; kinase activity remaining
T6 construct: purchased Millipore KinaseProfiler

WNK2 = target: T7, WNK2 (Homo sapiens, UniProt Q9Y3S1); assay: Kinome profiler screen; type: biochemical; conditions: at 20,000 nM inhibitor; kinase activity remaining
T7 construct: purchased Millipore KinaseProfiler

PRK2 = target: T8, PRK2 (Homo sapiens, UniProt Q16513); assay: Kinome profiler screen; type: biochemical; conditions: at 20,000 nM inhibitor; kinase activity remaining
T8 construct: purchased Millipore KinaseProfiler

CDK9/cyclin T1 = target: T9, CDK9/cyclin T1 (Homo sapiens, UniProt P50750); assay: Kinome profiler screen; type: biochemical; conditions: at 20,000 nM inhibitor; kinase activity remaining
T9 construct: purchased Millipore KinaseProfiler
T9 sequence (P50750 whole entry): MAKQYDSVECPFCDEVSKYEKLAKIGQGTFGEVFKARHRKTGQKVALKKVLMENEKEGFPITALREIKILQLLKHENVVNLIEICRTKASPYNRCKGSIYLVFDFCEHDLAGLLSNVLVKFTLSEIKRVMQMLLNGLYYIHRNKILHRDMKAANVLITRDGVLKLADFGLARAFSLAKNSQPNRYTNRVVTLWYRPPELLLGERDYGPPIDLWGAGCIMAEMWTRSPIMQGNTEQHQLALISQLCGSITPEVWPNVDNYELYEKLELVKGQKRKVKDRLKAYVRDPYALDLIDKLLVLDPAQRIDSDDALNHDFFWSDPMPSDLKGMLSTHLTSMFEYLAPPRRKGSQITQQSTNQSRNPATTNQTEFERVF
T9 sequence (O60563 whole entry partner): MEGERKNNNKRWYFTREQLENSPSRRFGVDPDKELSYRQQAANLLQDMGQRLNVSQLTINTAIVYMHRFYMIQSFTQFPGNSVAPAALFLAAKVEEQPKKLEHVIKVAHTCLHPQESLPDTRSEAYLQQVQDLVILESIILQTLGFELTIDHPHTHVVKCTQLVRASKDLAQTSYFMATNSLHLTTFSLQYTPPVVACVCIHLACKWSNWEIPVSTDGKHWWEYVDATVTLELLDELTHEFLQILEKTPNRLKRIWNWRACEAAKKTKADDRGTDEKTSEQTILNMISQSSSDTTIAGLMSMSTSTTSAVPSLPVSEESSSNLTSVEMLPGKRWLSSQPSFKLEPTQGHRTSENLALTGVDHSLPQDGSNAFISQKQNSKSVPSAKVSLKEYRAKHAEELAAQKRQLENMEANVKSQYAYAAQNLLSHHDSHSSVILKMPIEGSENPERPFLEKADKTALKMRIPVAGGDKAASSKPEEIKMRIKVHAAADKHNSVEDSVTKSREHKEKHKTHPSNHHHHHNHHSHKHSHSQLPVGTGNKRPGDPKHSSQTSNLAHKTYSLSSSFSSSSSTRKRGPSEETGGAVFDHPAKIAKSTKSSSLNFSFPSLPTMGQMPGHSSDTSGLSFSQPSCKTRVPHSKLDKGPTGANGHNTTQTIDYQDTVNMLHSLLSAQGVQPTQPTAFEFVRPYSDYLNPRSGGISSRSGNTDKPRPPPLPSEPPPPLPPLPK

Txk = target: T10, Txk (Homo sapiens, UniProt P42681); assay: Kinome profiler screen; type: biochemical; conditions: at 20,000 nM inhibitor; kinase activity remaining
T10 construct: purchased Millipore KinaseProfiler

MEK1 = target: T11, MEK1 (Homo sapiens, UniProt Q02750); assay: Kinome profiler screen; type: biochemical; conditions: at 20,000 nM inhibitor; kinase activity remaining
T11 construct: purchased Millipore KinaseProfiler

IRR = target: T12, IRR (Homo sapiens, UniProt P14616); assay: Kinome profiler screen; type: biochemical; conditions: at 20,000 nM inhibitor; kinase activity remaining
T12 construct: purchased Millipore KinaseProfiler

Ron = target: T13, Ron (Homo sapiens, UniProt Q04912); assay: Kinome profiler screen; type: biochemical; conditions: at 20,000 nM inhibitor; kinase activity remaining
T13 construct: purchased Millipore KinaseProfiler
T13 sequence (Q04912 25-1400): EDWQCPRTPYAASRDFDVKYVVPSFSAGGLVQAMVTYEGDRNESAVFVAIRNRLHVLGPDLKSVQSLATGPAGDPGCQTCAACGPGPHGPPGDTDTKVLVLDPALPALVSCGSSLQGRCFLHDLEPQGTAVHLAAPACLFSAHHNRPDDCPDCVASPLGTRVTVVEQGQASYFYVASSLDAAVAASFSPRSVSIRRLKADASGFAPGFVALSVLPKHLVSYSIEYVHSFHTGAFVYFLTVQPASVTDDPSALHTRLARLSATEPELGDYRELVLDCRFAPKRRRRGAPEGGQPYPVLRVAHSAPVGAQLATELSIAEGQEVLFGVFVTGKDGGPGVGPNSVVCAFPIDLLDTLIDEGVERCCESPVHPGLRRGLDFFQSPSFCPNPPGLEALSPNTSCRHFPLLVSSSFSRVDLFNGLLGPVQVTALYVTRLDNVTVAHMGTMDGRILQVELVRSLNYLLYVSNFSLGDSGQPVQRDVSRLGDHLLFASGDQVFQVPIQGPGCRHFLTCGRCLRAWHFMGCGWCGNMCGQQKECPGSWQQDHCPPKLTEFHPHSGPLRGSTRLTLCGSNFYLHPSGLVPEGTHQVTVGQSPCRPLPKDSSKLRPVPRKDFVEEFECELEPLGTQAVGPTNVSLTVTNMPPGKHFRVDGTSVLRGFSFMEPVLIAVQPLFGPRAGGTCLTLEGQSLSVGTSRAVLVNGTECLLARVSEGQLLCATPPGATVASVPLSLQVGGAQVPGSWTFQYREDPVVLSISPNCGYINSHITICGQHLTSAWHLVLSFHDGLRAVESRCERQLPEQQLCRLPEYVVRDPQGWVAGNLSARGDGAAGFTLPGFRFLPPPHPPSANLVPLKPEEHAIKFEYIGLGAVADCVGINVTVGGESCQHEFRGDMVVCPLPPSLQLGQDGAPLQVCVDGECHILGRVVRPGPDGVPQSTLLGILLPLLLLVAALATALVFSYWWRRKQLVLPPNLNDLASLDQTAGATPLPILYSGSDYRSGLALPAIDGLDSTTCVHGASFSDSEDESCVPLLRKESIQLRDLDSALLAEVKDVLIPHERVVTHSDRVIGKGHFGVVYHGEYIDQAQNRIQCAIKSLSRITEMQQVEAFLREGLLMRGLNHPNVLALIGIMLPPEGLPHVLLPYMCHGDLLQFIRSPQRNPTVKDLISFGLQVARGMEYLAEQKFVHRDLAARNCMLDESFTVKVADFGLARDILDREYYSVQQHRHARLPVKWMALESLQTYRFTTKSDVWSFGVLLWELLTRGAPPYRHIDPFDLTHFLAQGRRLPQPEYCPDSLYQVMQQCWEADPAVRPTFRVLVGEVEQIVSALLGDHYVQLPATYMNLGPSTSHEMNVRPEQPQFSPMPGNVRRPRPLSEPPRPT

LIMK1 = target: T14, LIMK1 (Homo sapiens, UniProt P53667); assay: Kinome profiler screen; type: biochemical; conditions: at 20,000 nM inhibitor; kinase activity remaining
T14 construct: purchased Millipore KinaseProfiler

IGF-1R = target: T15, IGF-1R (Homo sapiens, UniProt P08069); assay: Kinome profiler screen; type: biochemical; conditions: at 20,000 nM inhibitor; kinase activity remaining
T15 construct: purchased Millipore KinaseProfiler

cKit = target: T16, cKit (Homo sapiens, UniProt P10721); assay: Kinome profiler screen; type: biochemical; conditions: at 20,000 nM inhibitor; kinase activity remaining
T16 construct: purchased Millipore KinaseProfiler

Abl = target: T17, Abl (Homo sapiens, UniProt P00519); assay: Kinome profiler screen; type: biochemical; conditions: at 20,000 nM inhibitor; kinase activity remaining
T17 construct: purchased Millipore KinaseProfiler

PIP5K1α = target: T18, PIP5K1α (Homo sapiens, UniProt Q99755); assay: Kinome profiler screen; type: biochemical; conditions: at 20,000 nM inhibitor; kinase activity remaining
T18 construct: purchased Millipore KinaseProfiler

PDGFRβ = target: T19, PDGFRβ (Homo sapiens, UniProt P09619); assay: Kinome profiler screen; type: biochemical; conditions: at 20,000 nM inhibitor; kinase activity remaining
T19 construct: purchased Millipore KinaseProfiler

CK1δ = target: T20, CK1δ (Homo sapiens, UniProt P48730); assay: Kinome profiler screen; type: biochemical
T20 construct: purchased Millipore
T20 sequence (P48730 whole entry): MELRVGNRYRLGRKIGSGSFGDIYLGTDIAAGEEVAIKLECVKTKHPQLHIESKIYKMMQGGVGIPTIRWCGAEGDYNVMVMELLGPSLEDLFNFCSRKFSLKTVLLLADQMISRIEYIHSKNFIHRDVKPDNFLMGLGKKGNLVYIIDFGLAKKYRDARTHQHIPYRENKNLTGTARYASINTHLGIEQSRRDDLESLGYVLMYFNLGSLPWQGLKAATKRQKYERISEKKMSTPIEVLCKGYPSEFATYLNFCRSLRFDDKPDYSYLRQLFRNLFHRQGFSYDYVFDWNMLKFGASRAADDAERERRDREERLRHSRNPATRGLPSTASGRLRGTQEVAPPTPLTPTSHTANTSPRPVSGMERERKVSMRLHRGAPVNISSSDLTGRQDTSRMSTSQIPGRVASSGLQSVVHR

EphA5 = target: T21, EphA5 (Homo sapiens, UniProt P54756); assay: Kinome profiler screen; type: biochemical; conditions: at 20,000 nM inhibitor; kinase activity remaining
T21 construct: purchased Millipore KinaseProfiler

[1] = test system: sensory perception of electric shock; assay: Sensory threshold assessment; type: in vivo, C57BL/6J mice; conditions: control test
CK2α2 = target: T22, CK2α2 (Homo sapiens, UniProt P19784); assay: Kinome profiler screen; type: biochemical
T22 construct: purchased Millipore KinaseProfiler
T22 sequence (P19784 whole entry): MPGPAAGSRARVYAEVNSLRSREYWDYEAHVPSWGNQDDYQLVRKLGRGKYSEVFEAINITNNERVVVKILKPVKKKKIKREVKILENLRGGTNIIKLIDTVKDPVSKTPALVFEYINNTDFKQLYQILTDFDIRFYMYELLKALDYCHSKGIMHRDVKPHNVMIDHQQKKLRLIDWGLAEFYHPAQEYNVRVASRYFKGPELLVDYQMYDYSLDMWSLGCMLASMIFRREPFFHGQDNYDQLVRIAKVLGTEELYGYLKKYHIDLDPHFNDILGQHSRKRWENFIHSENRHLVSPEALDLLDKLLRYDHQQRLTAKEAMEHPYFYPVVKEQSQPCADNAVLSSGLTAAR

FGFR2 = target: T23, FGFR2 (Homo sapiens, UniProt P21802); assay: Kinome profiler screen; type: biochemical; conditions: at 20,000 nM inhibitor; kinase activity remaining
T23 construct: purchased Millipore KinaseProfiler
T23 sequence (P21802 22-821): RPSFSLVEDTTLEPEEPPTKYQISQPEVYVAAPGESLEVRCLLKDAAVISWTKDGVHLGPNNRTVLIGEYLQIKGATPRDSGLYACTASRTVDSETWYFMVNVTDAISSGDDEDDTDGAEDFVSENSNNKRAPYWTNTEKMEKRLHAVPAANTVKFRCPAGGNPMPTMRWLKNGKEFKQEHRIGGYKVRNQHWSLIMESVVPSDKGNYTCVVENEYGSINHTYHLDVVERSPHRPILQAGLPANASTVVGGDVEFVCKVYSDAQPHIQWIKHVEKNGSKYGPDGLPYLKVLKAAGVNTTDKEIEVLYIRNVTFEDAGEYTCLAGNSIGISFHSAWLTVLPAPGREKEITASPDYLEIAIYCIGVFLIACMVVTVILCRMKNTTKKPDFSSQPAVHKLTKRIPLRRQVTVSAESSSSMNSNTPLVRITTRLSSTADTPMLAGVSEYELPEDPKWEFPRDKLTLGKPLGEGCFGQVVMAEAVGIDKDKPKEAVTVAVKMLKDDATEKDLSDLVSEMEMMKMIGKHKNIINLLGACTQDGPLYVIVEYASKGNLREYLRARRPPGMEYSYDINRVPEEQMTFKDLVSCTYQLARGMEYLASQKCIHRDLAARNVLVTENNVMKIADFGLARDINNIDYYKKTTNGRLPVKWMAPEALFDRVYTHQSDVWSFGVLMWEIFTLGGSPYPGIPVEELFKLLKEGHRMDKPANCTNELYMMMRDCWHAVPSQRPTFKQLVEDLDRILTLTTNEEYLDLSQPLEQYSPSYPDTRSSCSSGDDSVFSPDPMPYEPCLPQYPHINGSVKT

Haspin = target: T24, Haspin (Homo sapiens, UniProt Q8TF76); assay: Kinome profiler screen; type: biochemical; conditions: at 20,000 nM inhibitor; kinase activity remaining
T24 construct: purchased Millipore KinaseProfiler

PKG1β = target: T25, PKG1β (Homo sapiens, UniProt Q13976); assay: Kinome profiler screen; type: biochemical; conditions: at 20,000 nM inhibitor; kinase activity remaining
T25 construct: purchased Millipore KinaseProfiler

Tie2(R849W) = target: T26, Tie2(R849W) (Homo sapiens, UniProt Q02763, R849W); assay: Kinome profiler screen; type: biochemical; conditions: at 20,000 nM inhibitor; kinase activity remaining
T26 construct: purchased Millipore KinaseProfiler

Tie2 = target: T27, Tie2 (Homo sapiens, UniProt Q02763); assay: Kinome profiler screen; type: biochemical; conditions: at 20,000 nM inhibitor; kinase activity remaining
T27 construct: purchased Millipore KinaseProfiler

PTK5 = target: T28, PTK5 (Homo sapiens, UniProt P42685); assay: Kinome profiler screen; type: biochemical; conditions: at 20,000 nM inhibitor; kinase activity remaining
T28 construct: purchased Millipore KinaseProfiler
T28 sequence (P42685 whole entry): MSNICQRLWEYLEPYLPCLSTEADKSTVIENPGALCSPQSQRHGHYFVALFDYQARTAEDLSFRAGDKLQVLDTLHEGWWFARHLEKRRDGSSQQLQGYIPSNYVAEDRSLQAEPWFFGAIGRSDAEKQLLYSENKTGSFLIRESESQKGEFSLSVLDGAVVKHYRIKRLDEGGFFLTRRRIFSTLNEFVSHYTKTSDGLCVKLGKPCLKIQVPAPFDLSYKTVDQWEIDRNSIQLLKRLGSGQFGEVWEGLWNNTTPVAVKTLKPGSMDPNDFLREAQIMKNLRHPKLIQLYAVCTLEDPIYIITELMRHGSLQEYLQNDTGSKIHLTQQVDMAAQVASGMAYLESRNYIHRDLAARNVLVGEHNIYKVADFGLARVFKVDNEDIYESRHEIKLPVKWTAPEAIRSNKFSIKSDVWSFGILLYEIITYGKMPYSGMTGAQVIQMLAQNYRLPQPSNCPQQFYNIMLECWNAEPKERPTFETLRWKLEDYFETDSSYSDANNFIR

Aurora-B = target: T29, Aurora-B (Homo sapiens, UniProt Q96GD4); assay: Kinome profiler screen; type: biochemical; conditions: at 20,000 nM inhibitor; kinase activity remaining
T29 construct: purchased Millipore KinaseProfiler

Abl (M351T) = target: T30, Abl (M351T) (Homo sapiens, UniProt P00519, M351T); assay: Kinome profiler screen; type: biochemical; conditions: at 20,000 nM inhibitor; kinase activity remaining
T30 construct: purchased Millipore KinaseProfiler

Pim-1 = target: T31, Pim-1 (Homo sapiens, UniProt P11309); assay: Kinome profiler screen; type: biochemical; conditions: at 20,000 nM inhibitor; kinase activity remaining
T31 construct: purchased Millipore KinaseProfiler

exploratory behavior = assay: Open-field test; type: in vivo, C57BL/6J mice; conditions: time in and entries into center compartment; control test
NEK11 = target: T32, NEK11 (Homo sapiens, UniProt Q8NG66); assay: Kinome profiler screen; type: biochemical; conditions: at 20,000 nM inhibitor; kinase activity remaining
T32 construct: purchased Millipore KinaseProfiler

TAO2 = target: T33, TAO2 (Homo sapiens, UniProt Q9UL54); assay: Kinome profiler screen; type: biochemical; conditions: at 20,000 nM inhibitor; kinase activity remaining
T33 construct: purchased Millipore KinaseProfiler

PKCθ = target: T34, PKCθ (Homo sapiens, UniProt Q04759); assay: Kinome profiler screen; type: biochemical; conditions: at 20,000 nM inhibitor; kinase activity remaining
T34 construct: purchased Millipore KinaseProfiler

CDK6/cyclinD3 = target: T35, CDK6/cyclinD3 (Homo sapiens, UniProt Q00534); assay: Kinome profiler screen; type: biochemical; conditions: at 20,000 nM inhibitor; kinase activity remaining
T35 construct: purchased Millipore KinaseProfiler

MST2 = target: T36, MST2 (Homo sapiens, UniProt Q13188); assay: Kinome profiler screen; type: biochemical; conditions: at 20,000 nM inhibitor; kinase activity remaining
T36 construct: purchased Millipore KinaseProfiler
T36 sequence (Q13188 whole entry): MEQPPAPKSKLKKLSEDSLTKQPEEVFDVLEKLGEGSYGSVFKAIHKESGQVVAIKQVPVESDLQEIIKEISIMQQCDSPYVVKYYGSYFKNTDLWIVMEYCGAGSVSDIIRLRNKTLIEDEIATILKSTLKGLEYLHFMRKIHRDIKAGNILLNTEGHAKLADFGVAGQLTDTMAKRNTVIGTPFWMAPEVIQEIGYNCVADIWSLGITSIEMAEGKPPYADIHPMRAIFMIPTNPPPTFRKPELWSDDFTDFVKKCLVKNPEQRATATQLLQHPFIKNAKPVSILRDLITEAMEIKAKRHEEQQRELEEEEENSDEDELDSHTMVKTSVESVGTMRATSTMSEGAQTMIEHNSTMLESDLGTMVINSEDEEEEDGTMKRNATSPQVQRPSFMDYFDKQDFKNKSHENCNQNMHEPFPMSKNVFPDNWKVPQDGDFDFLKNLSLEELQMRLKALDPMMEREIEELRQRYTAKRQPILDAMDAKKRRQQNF

PDK1 = target: T37, PDK1 (Homo sapiens, UniProt O15530); assay: Kinome profiler screen; type: biochemical; conditions: at 20,000 nM inhibitor; kinase activity remaining
T37 construct: purchased Millipore KinaseProfiler

ROCK-II = target: T38, ROCK-II (Homo sapiens, UniProt O75116); assay: Kinome profiler screen; type: biochemical; conditions: at 20,000 nM inhibitor; kinase activity remaining
T38 construct: purchased Millipore KinaseProfiler

[2] = target: T39, PI3 Kinase (p110δ/p85α)(m) (Mus musculus, UniProt O35904); assay: Kinome profiler screen; type: biochemical; conditions: at 20,000 nM inhibitor; kinase activity remaining
T39 construct: purchased Millipore KinaseProfiler

CLK2 = target: T40, CLK2 (Homo sapiens, UniProt P49760); assay: Kinome profiler screen; type: biochemical; conditions: at 20,000 nM inhibitor; kinase activity remaining
T40 construct: purchased Millipore KinaseProfiler

[3] = test system: visual, motor and motivation deficits; assay: Visible platform test; type: in vivo, C57BL/6J mice; conditions: control test
[4] = test system: IL-1β levels in brain cortex; assay: LPS-induced brain IL-1β in vivo; set-up: species or system C57Bl/6 mice; conditions: 20 mg/Kg oral gavage 1 hr before LPS 0.5 mg/kg i.p.; brain cortex at 6 hrs

CN(C)c1cc(-c2ccncc2)c(-c2ccc3ccccc3c2)nn1 [MW108, N, N-dimethyl-6-(naphthalen-2-yl)-5-(pyridin-4-yl)pyridazin-3-amine]
activity at 20 µM (EGFR(L858R)): 48% | activity at 20 µM (Arg): 95% | activity at 20 µM (ACK1): 100% | activity at 20 µM (TSSK2): 101% | activity at 20 µM (PKBγ): 92% | activity at 20 µM (Pim-2): 93% | activity at 20 µM (WNK2): 101% | activity at 20 µM (PRK2): 103% | activity at 20 µM (CDK9/cyclin T1): 95% | activity at 20 µM (Txk): 98% | activity at 20 µM (MEK1): 130% | activity at 20 µM (IRR): 94% | activity at 20 µM (Ron): 91% | activity at 20 µM (LIMK1): 106% | activity at 20 µM (IGF-1R): 137% | activity at 20 µM (cKit): 104% | activity at 20 µM (Abl): 99% | activity at 20 µM (PIP5K1α): 104% | activity at 20 µM (PDGFRβ): 99% | activity at 20 µM (CK1δ): 33% | activity at 20 µM (EphA5): 100% | sensory threshold [1]: Sensory threshold was not affected regardless of treatment | activity at 20 µM (CK2α2): 114% | activity at 20 µM (FGFR2): 101% | activity at 20 µM (Haspin): 87% | activity at 20 µM (PKG1β): 96% | activity at 20 µM (Tie2(R849W)): 77% | activity at 20 µM (Tie2): 81% | activity at 20 µM (PTK5): 80% | activity at 20 µM (Aurora-B): 134% | activity at 20 µM (Abl (M351T)): 106% | activity at 20 µM (Pim-1): 103% | exploratory behavior, open field (exploratory behavior): No differences in exploratory behavior | activity at 20 µM (NEK11): 108% | activity at 20 µM (TAO2): 81% | activity at 20 µM (PKCθ): 107% | activity at 20 µM (CDK6/cyclinD3): 85% | activity at 20 µM (MST2): 98% | activity at 20 µM (PDK1): 104% | activity at 20 µM (ROCK-II): 99% | activity at 20 µM [2]: 100% | activity at 20 µM (CLK2): 103% | visible platform test, speed and time to the platform [3]: No difference was detected between groups | LPS-induced IL-1β levels in vivo [4]: suppressed LPS-induced IL-1β levels in vivo
